In ChEMBL document CHEMBL1138343 (J Med Chem, 2007):

Columns and labels:
[1] = target: T1, Glucocorticoid receptor (Homo sapiens, UniProt P04150); assay: Agonist activity at glucocorticoid receptor in human A549 cells by MMTV transactivation assay; type: functional, cell-based; settings: for pEC50: a549
T1 sequence (P04150 whole entry): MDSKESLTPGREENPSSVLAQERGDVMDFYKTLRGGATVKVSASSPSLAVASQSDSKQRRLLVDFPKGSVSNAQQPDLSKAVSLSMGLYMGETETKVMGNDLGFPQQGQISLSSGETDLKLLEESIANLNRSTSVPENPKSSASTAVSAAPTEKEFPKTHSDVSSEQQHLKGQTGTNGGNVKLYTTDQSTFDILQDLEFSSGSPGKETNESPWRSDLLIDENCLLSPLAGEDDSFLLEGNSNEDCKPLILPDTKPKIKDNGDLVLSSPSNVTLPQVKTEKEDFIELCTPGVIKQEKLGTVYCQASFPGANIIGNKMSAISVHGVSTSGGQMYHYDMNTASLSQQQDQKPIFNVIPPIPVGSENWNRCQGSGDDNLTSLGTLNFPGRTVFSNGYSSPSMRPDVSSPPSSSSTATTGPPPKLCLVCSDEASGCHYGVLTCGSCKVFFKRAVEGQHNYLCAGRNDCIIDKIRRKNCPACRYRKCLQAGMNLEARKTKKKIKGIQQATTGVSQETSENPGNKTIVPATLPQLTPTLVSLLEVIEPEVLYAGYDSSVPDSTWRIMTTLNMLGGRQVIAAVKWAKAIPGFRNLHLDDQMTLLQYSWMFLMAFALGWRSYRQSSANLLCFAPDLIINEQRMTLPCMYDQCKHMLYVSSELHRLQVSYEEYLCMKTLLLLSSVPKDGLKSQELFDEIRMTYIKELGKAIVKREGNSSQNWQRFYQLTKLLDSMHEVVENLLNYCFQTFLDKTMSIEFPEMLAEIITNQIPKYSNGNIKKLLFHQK

[2] = target: T1, Glucocorticoid receptor
[3] = target: T1, Glucocorticoid receptor; remark: listed apart in the source
Description: Agonist activity at glucocorticoid receptor in human A549 cells by NF-kappaB transrepression assay

[4] = target: T1, Glucocorticoid receptor; remark: listed apart in the source

Row | SMILES | EC50 [1] [nM] | IC50 [2] [nM] | IC50 [3] [nM] | IC50 [4] [nM] | pEC50 [1]
1 | Cc1noc(=O)c2ccc(NC(=O)C(O)(CC3(C4CCCC4)CCCc4ccccc43)C(F)(F)F)cc12 (stereo not given) | 17.8 | 8.13 | 2.04 | 53.7 | –
2 | CC1(CC(O)(Cc2cc3ccccc3[nH]2)C(F)(F)F)CCCc2ccccc21 (stereo not given) | 41.7 | 22.9 | 42.7 | 447 | –
3 | CCC1(CC(O)(Cc2cc(Cl)nc3ccccc23)C(F)(F)F)CCCc2ccccc21 (stereo not given) | 51.3 | 28.2 | 30.2 | – | –
4 | OC(Cc1ccnc2ccccc12)(CC1(C2CCCC2)CCCc2ccccc21)C(F)(F)F (stereo not given) | > 10000 | 148 | 741 | – | –
5 | CCC1(CC(O)(Cc2[nH]c3ccccc3c2C#N)C(F)(F)F)CCCc2ccccc21 (stereo not given) | > 1000 | 7.59 | 6.61 | 57.5 | –
6 | CC1(CC(O)(CNc2cccc3ncccc23)C(F)(F)F)CCCc2ccccc21 (stereo not given) | 13.5 | 6.31 | 3.09 | – | –
7 | CCC1(CC(O)(Cn2ccc(=O)c3ccccc32)C(F)(F)F)CCCc2ccccc21 (stereo not given) | > 1000 | 14.1 | 8.13 | – | –
8 | CCC1(CC(O)(CNc2cccc3ncccc23)C(F)(F)F)CCCc2ccccc21 (stereo not given) | > 1000 | 11.2 | 12.3 | – | –
9 | CC1(CC(O)(Cn2ccc(=O)c3ccccc32)C(F)(F)F)CCCc2ccccc21 (stereo in doubt; 17D1) | – | 14.1 | 49 | 224 | < 6
10 | CC1(CC(O)(Cn2ccc(=O)c3ccccc32)C(F)(F)F)CCCc2ccccc21 (stereo in doubt; 17D2) | > 1000 | 34.7 | > 1000 | 708 | –
11 | CCC1(CC(O)(Cc2cc3ccccc3[nH]2)C(F)(F)F)CCCc2ccccc21 (stereo in doubt; 20D1) | 64.6 | 31.6 | 57.5 | – | –
12 | CCC1(CC(O)(Cc2cc3ccccc3[nH]2)C(F)(F)F)CCCc2ccccc21 (stereo in doubt; 20D1E1) | 61.7 | 14.1 | 11.2 | 245 | –
13 | CCC1(CC(O)(Cc2cc3ccccc3[nH]2)C(F)(F)F)CCCc2ccccc21 (stereo in doubt; 20D1E2) | – | 1260 | > 1000 | – | –
14 | CCC1(CC(O)(Cc2cc3c(C)cc(C#N)cc3[nH]2)C(F)(F)F)CCCc2ccccc21 (stereo in doubt; 21D1) | 58.9 | 89.1 | 7.24 | – | –
15 | CCC1(CC(O)(Cc2cc3c(C)cc(C#N)cc3[nH]2)C(F)(F)F)CCCc2ccccc21 (stereo in doubt; 21D1E2) | 51.3 | 38.9 | 3.8 | – | –
16 | CCC1(CC(O)(Cc2cc3ccncc3[nH]2)C(F)(F)F)CCCc2ccccc21 (stereo in doubt; 23D1) | – | 28.2 | 20 | – | < 6

Row | SMILES | EC50 [1] [nM] | IC50 [2] [nM] | IC50 [3] [nM] | IC50 [4] [nM] | pEC50 [1]
17 | CCC1(CC(O)(Cc2cc3ccncc3[nH]2)C(F)(F)F)CCCc2ccccc21 (stereo in doubt; 23D1E1) | > 1000 | 8.91 | 8.91 | 741 | –
18 | CCC1(CC(O)(Cc2ccnc3ccccc23)C(F)(F)F)CCCc2ccccc21 (stereo in doubt; 33D1) | 38 | 15.1 | 4.9 | 5010 | –
19 | CCC1(CC(O)(Cc2ccnc3ccccc23)C(F)(F)F)CCCc2ccccc21 (stereo in doubt; 33D1E1) | > 1000 | 10 | 1.58 | – | –
20 | CCC1(CC(O)(Cc2ccnc3ccccc23)C(F)(F)F)CCCc2ccccc21 (stereo in doubt; 33D2) | > 10000 | 33.1 | 275 | – | –
21 | CC1(CC(O)(Cc2ccnc3ccccc23)C(F)(F)F)CCCc2ccccc21 (stereo in doubt; 41D1) | 12.9 | 15.1 | 7.08 | – | –
22 | CC1(CC(O)(Cc2ccnc3ccccc23)C(F)(F)F)CCCc2ccccc21 (stereo in doubt; 41D2) | > 10000 | 24 | > 10000 | – | –
23 | CCC1(CC(O)(CNc2cccc3nc(C)ccc23)C(F)(F)F)CCCc2ccccc21 (stereo in doubt; 45D1) | 13.2 | 14.8 | 2.4 | – | –
24 | CCC1(CC(O)(CNc2cccc3nc(C)ccc23)C(F)(F)F)CCCc2ccccc21 (stereo in doubt; 45D1E1) | 11 | 14.8 | 1.95 | – | –
25 | CCC1(CC(O)(CNc2cccc3nc(C)ccc23)C(F)(F)F)CCCc2ccccc21 (stereo in doubt; 45D2) | 162 | 18.6 | 49 | – | –
26 | CCC1(CC(O)(CNc2cccc3nc(C)ccc23)C(F)(F)F)CCCc2ccccc21 (stereo in doubt; 45D2E1) | 288 | 17.4 | 45.7 | – | –
27 | CCC1(CC(O)(CNc2cccc3cnccc23)C(F)(F)F)CCCc2ccccc21 (stereo in doubt; 49D1) | 32.4 | 21.4 | 1.26 | – | –
28 | CCC1(CC(O)(CNc2cccc3cnccc23)C(F)(F)F)CCCc2ccccc21 (stereo in doubt; 49D1E2) | > 1000 | 10 | 2.19 | – | –
29 | CC1(CC(O)(CNc2cccc3cnccc23)C(F)(F)F)CCCc2ccccc21 (stereo in doubt; 54D1E2) | 8.32 | 8.71 | 1.17 | 102 | –
30 | CC1(CC(O)(CNc2cccc3cnccc23)C(F)(F)F)CCCc2ccccc21 (stereo in doubt; 54D2E1) | 257 | 74.1 | 15.1 | – | –
31 | Cc1ccc2c(NCC(O)(CC3(C)CCCc4ccccc43)C(F)(F)F)cccc2n1 (stereo in doubt; 55D1E1) | 9.55 | 5.01 | 0.501 | 77.6 | –
32 | Cc1ccc2c(NCC(O)(CC3(C)CCCc4ccccc43)C(F)(F)F)cccc2n1 (stereo in doubt; 55D2E1) | 72.4 | 9.12 | 9.12 | – | –
